Laboratory results taken from ChEMBL document CHEMBL4507279, “Data for DCP probe BI-9627” (2021).

Columns and labels:
[1] = target: Tyrosine-protein kinase JAK3 (Homo sapiens) (UniProt P52333); conditions: Compound concentration 1000.0 nM
[2] = target: Serine/threonine-protein kinase Nek6 (Homo sapiens) (UniProt Q9HC98); conditions: Compound concentration 1000.0 nM
[3] = target: Wee1-like protein kinase (Homo sapiens) (UniProt P30291); conditions: Compound concentration 1000.0 nM
[4] = target: Delta-type opioid receptor (Homo sapiens) (UniProt P41143); conditions: Compound concentration 10.0 uM
[5] = target: Serine/threonine-protein kinase Nek4 (Homo sapiens) (UniProt P51957); conditions: Compound concentration 1000.0 nM
[6] = target: Sodium/hydrogen exchanger 3 (Homo sapiens, UniProt P48764); assay: pHi change assay with SLC9A3
[7] = system: Receptor-type tyrosine-protein kinase FLT3 (Homo sapiens), P36888 [UNDEFINED MUTATION]; conditions: Compound concentration 1000.0 nM
[8] = target: Serine/threonine-protein kinase SIK3 (Homo sapiens) (UniProt Q9Y2K2); conditions: Compound concentration 1000.0 nM
[9] = target: Ankyrin repeat and protein kinase domain-containing protein 1 (Homo sapiens) (UniProt Q8NFD2); conditions: Compound concentration 1000.0 nM
[10] = target: T1, Alpha-1A adrenergic receptor (Homo sapiens) (UniProt P35348); conditions: Compound concentration 10.0 uM
T1 sequence (whole entry): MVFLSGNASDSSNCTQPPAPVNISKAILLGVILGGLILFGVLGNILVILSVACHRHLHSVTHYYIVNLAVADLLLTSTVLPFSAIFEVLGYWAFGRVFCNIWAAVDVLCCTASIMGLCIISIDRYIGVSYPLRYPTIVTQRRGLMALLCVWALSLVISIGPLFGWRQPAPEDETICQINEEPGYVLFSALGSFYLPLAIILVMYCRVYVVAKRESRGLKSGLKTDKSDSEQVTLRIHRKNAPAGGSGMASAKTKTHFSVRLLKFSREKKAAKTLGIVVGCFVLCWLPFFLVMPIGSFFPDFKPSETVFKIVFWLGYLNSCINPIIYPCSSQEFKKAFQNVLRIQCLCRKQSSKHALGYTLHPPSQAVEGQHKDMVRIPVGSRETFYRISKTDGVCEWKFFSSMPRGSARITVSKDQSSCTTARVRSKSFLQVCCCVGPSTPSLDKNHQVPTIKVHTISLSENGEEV

[11] = target: Mitogen-activated protein kinase 7 (Homo sapiens) (UniProt Q13164); conditions: Compound concentration 1000.0 nM
Sequence of Mitogen-activated protein kinase 7 (Homo sapiens) (Q13164 2-816 limits assumed): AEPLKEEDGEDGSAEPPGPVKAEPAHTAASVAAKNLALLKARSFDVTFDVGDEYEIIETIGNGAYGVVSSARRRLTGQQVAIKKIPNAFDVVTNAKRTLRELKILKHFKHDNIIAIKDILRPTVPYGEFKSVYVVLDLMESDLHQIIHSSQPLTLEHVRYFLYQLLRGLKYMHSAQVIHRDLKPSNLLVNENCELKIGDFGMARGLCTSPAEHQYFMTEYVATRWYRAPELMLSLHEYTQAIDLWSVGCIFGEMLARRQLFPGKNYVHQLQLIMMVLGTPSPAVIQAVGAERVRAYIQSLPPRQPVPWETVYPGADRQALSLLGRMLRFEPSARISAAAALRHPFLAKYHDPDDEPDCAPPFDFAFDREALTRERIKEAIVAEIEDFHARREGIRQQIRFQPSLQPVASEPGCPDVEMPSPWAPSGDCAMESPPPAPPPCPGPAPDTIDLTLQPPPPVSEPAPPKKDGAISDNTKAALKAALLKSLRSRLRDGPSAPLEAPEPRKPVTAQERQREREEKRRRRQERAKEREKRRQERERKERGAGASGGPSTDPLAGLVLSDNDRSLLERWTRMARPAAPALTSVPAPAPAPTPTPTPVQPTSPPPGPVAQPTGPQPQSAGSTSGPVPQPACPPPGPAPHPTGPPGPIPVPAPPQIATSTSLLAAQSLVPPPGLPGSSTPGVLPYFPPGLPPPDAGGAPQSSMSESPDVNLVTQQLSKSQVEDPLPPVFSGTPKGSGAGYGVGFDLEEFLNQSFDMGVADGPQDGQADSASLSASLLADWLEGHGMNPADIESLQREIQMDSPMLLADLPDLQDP

[12] = target: Muscarinic acetylcholine receptor M4 (Homo sapiens) (UniProt P08173); conditions: Compound concentration 10.0 uM
[13] = target: Ephrin type-B receptor 6 (Homo sapiens) (UniProt O15197); conditions: Compound concentration 1000.0 nM
[14] = target: Cyclin-dependent kinase 18 (Homo sapiens) (UniProt Q07002); conditions: Compound concentration 1000.0 nM
[15] = target: Rho-associated protein kinase 2 (Homo sapiens) (UniProt O75116); conditions: Compound concentration 1000.0 nM
[16] = system: Serine/threonine-protein kinase B-raf (Homo sapiens), P15056 [V600E]; conditions: Compound concentration 1000.0 nM
[17] = target: Aurora kinase A (Homo sapiens) (UniProt O14965); conditions: Compound concentration 1000.0 nM
Sequence of Aurora kinase A (Homo sapiens) (O14965 whole entry): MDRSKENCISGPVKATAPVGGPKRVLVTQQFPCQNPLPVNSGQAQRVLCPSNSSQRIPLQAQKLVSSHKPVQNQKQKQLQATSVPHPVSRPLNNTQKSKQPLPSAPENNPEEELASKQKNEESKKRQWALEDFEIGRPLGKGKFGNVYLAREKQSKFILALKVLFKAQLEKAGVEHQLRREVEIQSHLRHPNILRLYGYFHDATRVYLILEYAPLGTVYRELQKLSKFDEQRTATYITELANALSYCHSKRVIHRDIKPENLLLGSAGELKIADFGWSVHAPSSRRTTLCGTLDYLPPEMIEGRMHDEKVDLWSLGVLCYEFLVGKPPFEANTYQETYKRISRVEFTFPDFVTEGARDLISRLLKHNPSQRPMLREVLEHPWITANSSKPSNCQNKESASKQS

[18] = system: Epidermal growth factor receptor (Homo sapiens), P00533 [L858R]; conditions: Compound concentration 1000.0 nM
[19] = target: Mitogen-activated protein kinase kinase kinase kinase 2 (Homo sapiens) (UniProt Q12851); conditions: Compound concentration 1000.0 nM
[20] = target: Tyrosine-protein kinase ABL1 (Homo sapiens) (UniProt P00519); conditions: Compound concentration 1000.0 nM
Sequence of Tyrosine-protein kinase ABL1 (Homo sapiens) (P00519 whole entry): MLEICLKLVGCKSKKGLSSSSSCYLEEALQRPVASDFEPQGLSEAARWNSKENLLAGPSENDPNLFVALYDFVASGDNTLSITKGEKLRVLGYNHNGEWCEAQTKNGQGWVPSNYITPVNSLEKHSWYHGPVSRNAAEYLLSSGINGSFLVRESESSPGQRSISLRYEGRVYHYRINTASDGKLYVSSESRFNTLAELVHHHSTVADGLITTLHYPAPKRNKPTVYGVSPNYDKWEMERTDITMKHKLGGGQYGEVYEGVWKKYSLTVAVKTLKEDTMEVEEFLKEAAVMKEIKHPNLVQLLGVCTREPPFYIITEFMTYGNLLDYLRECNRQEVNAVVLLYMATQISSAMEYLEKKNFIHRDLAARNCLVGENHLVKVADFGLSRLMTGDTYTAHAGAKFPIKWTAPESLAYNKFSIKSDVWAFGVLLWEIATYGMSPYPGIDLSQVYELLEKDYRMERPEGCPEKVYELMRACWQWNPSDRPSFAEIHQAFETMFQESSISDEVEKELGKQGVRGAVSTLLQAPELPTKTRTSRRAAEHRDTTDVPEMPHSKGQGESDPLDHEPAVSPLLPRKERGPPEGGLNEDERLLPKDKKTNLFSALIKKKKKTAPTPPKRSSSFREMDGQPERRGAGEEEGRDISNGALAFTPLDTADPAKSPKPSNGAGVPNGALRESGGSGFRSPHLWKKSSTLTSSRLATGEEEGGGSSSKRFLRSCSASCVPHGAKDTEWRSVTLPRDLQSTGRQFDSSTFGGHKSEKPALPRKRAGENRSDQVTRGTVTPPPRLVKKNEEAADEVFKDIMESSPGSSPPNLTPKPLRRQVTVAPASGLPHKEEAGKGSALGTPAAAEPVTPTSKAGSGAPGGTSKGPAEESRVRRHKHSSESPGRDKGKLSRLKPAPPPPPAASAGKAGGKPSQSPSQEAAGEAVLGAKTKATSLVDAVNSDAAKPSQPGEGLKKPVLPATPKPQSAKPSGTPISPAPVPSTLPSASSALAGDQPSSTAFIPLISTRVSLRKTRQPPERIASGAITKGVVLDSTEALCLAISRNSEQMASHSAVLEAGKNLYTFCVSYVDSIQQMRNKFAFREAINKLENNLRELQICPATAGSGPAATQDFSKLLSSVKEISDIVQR

[21] = target: Serine/threonine-protein kinase PAK 3 (Homo sapiens) (UniProt O75914); conditions: Compound concentration 1000.0 nM
[22] = target: Tyrosine-protein kinase ABL1 (Homo sapiens) (UniProt P00519); conditions: Compound concentration 1000.0 nM; remark: listed apart in the source
[23] = target: Wee1-like protein kinase 2 (Homo sapiens) (UniProt P0C1S8); conditions: Compound concentration 1000.0 nM
[24] = target: Ribosomal protein S6 kinase alpha-3 (Homo sapiens) (UniProt P51812); conditions: Compound concentration 1000.0 nM
[25] = system: ALK tyrosine kinase receptor (Homo sapiens), Q9UM73 [L1196M]; conditions: Compound concentration 1000.0 nM
[26] = target: Serine/threonine-protein kinase 38-like (Homo sapiens) (UniProt Q9Y2H1); conditions: Compound concentration 1000.0 nM
[27] = target: Dual specificity protein kinase CLK3 (Homo sapiens) (UniProt P49761); conditions: Compound concentration 1000.0 nM
[28] = target: Dual specificity protein kinase CLK1 (Homo sapiens) (UniProt P49759); conditions: Compound concentration 1000.0 nM
[29] = target: Mitogen-activated protein kinase 10 (Homo sapiens) (UniProt P53779); conditions: Compound concentration 1000.0 nM
[30] = target: SRSF protein kinase 1 (Homo sapiens) (UniProt Q96SB4); conditions: Compound concentration 1000.0 nM
[31] = target: Serine/threonine-protein kinase N2 (Homo sapiens) (UniProt Q16513); conditions: Compound concentration 1000.0 nM
[32] = target: Sodium-dependent dopamine transporter (Homo sapiens, UniProt Q01959); assay: GPCRScan assay: inhibition of DAT; design: radioligand conc. used [nm] 3.6 – 16.0, parental cells stable HEK
Sequence of Sodium-dependent dopamine transporter (Q01959 whole entry): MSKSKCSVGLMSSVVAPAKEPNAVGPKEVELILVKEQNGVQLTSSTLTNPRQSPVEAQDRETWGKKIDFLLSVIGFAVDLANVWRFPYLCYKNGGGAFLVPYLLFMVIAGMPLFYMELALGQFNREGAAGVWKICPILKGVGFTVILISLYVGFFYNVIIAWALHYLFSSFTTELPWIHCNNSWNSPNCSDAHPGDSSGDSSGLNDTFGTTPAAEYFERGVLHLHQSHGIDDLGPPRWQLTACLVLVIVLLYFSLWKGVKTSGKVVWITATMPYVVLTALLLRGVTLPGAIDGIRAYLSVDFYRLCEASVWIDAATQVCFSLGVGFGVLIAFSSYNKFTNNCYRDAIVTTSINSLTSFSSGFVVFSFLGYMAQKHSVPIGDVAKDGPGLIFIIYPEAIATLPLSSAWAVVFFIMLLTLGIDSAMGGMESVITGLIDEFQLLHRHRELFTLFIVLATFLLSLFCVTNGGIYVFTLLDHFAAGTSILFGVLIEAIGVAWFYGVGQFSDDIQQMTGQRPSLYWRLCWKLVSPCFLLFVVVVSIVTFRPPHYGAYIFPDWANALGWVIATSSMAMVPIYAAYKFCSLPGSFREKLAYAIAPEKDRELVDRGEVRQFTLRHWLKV

[33] = target: Insulin receptor-related protein (Homo sapiens) (UniProt P14616); conditions: Compound concentration 1000.0 nM
[34] = target: Macrophage-stimulating protein receptor (Homo sapiens) (UniProt Q04912); conditions: Compound concentration 1000.0 nM
[35] = target: Insulin-like growth factor 1 receptor (Homo sapiens) (UniProt P08069); conditions: Compound concentration 1000.0 nM
Sequence of Insulin-like growth factor 1 receptor (Homo sapiens) (P08069 31-736 limits assumed): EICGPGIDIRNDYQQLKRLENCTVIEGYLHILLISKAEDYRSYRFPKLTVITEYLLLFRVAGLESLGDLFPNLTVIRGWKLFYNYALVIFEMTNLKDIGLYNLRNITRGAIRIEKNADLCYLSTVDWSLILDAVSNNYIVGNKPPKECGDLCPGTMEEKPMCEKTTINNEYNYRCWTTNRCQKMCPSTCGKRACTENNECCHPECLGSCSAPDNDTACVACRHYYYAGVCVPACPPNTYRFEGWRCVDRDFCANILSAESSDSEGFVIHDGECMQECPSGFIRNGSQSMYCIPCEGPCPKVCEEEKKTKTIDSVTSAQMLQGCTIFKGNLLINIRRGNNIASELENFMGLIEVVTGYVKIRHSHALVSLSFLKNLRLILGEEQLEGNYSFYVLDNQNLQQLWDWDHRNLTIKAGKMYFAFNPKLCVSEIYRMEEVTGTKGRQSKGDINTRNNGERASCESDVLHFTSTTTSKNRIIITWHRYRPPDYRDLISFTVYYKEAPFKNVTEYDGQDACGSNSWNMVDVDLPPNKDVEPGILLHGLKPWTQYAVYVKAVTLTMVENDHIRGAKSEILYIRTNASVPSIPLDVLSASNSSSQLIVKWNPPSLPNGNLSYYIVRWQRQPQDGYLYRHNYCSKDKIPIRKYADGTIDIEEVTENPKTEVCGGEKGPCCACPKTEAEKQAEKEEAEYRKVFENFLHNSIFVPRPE
Sequence of Insulin-like growth factor 1 receptor (Homo sapiens) (P08069 741-1367 limits assumed): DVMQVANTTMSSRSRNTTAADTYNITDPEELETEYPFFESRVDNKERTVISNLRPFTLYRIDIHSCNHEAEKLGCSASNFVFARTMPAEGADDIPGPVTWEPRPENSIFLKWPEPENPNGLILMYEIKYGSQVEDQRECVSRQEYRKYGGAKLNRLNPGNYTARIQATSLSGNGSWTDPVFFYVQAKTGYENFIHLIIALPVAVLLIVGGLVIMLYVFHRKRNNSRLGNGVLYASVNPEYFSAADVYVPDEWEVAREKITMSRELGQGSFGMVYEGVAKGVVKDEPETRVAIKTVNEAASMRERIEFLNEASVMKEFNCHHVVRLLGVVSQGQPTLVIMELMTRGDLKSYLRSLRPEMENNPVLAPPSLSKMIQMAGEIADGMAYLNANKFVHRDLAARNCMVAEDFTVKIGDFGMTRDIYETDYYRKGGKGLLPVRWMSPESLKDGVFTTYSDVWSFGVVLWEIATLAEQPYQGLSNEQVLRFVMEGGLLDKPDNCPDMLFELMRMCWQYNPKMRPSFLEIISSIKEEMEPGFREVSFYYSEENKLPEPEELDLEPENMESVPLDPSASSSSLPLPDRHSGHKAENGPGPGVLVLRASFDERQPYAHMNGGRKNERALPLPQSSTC

[36] = target: Serine/threonine-protein kinase 32C (Homo sapiens) (UniProt Q86UX6); conditions: Compound concentration 1000.0 nM
[37] = system: Phosphatidylinositol 4,5-bisphosphate 3-kinase catalytic subunit alpha isoform (Homo sapiens), P42336 [Q546K]; conditions: Compound concentration 1000.0 nM
[38] = target: Angiopoietin-1 receptor (Homo sapiens) (UniProt Q02763); conditions: Compound concentration 1000.0 nM
[39] = target: Serine/threonine-protein kinase PLK1 (Homo sapiens) (UniProt P53350); conditions: Compound concentration 1000.0 nM

Sequence of Wee1-like protein kinase (Homo sapiens) (P30291 whole entry, looked up): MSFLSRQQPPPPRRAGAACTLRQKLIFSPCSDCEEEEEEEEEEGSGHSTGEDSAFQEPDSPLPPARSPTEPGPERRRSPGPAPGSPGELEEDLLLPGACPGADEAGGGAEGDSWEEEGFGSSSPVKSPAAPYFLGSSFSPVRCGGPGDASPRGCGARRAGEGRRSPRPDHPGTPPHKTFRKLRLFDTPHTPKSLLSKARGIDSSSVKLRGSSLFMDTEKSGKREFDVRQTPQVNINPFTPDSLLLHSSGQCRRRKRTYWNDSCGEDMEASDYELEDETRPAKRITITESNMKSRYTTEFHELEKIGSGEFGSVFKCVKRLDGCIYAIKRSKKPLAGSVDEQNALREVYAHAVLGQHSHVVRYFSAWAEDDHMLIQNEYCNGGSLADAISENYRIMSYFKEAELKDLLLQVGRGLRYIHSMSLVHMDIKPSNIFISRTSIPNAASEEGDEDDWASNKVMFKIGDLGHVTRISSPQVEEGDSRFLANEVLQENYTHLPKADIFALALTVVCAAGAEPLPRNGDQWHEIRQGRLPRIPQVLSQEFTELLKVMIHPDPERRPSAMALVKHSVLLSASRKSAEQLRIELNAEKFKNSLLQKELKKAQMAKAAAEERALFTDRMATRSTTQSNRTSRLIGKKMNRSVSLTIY

SMILES | residual activity [1] | residual activity [2] | residual activity [3] | inhibition [4] | residual activity [5] | IC50 [6] | residual activity [7] | residual activity [8] | residual activity [9] | inhibition [10] | residual activity [11] | inhibition [12] | residual activity [13] | residual activity [14] | residual activity [15] | residual activity [16] | residual activity [17] | residual activity [18] | residual activity [19] | residual activity [20] | further results
CC(=O)N1CCC(c2ccc(C(=O)NC3=NCCN3)cc2C(F)(F)F)CC1 [BI 0054] | 100% | 100% | 100% | -0.82% | 100% | > 10000 nM (not active) | 88% | 100% | 100% | -5.1% | 89% | 19.9% | 100% | 100% | 73% | 100% | 100% | 100% | 100% | 95% | residual activity [21]: 100%; residual activity [22]: 83%; residual activity [23]: 100%; residual activity [24]: 99%; residual activity [25]: 70%; residual activity [26]: 90%; residual activity [27]: 100%; residual activity [28]: 100%; residual activity [29]: 100%; residual activity [30]: 100%; residual activity [31]: 100%; Ki ([32]; read-out: Ki): 825 nM; Ki ([32]; read-out: pKi (converted)): 794 nM; residual activity [33]: 81%; residual activity [34]: 80%; residual activity [35]: 100%; residual activity [36]: 100%; residual activity [37]: 100%; residual activity [38]: 100%; residual activity [39]: 88%
CC(=O)N1CCC(c2ccc(C(=O)NC(=N)N)cc2C(F)(F)F)CC1 [BI 9627] | 100% | 100% | 100% | -5.35% | 100% | > 16000 nM (not active) | 80% | 100% | 100% | 6.05% | 100% | 22.3% | 100% | 94% | 100% | 100% | 87% | 100% | 100% | 93% | residual activity [21]: 84%; residual activity [22]: 89%; residual activity [23]: 100%; residual activity [24]: 100%; residual activity [25]: 96%; residual activity [26]: 99%; residual activity [27]: 100%; residual activity [28]: 100%; residual activity [29]: 100%; residual activity [30]: 86%; residual activity [31]: 100%; Ki ([32]; read-out: Ki): 1520 nM; Ki ([32]; read-out: pKi (converted)): 1580 nM; residual activity [33]: 100%; residual activity [34]: 97%; residual activity [35]: 100%; residual activity [36]: 100%; residual activity [37]: 100%; residual activity [38]: 96%; residual activity [39]: 90%
